# Assay results published in patent US20240383904A1, “HETEROCYCLIC COMPOUNDS” (Hoffmann-La Roche Inc., priority 2021, published 2024).
# Biological target: T1, MAGL (Homo sapiens, UniProt Q99685)
# T1 sequence (Q99685 1-303): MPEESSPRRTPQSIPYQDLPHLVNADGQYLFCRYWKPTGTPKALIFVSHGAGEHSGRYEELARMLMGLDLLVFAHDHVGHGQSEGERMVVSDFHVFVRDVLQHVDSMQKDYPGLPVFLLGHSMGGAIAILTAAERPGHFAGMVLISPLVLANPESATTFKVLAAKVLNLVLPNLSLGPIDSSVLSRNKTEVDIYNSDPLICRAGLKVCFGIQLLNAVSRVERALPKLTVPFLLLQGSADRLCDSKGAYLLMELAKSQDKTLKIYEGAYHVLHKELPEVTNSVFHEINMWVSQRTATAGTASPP
# Test: 2-AG assay: MAGL inhibitory activity by hydrolysis of 2-arachidonoylglycerol to arachidonic acid, followed by mass spectrometry
# Format: biochemical
# Settings: 15 min preincubation, 30 min reaction at RT, 8 μM 2-arachidonoylglycerol
row,Compound,IC50 [nM]
1,"O=C1CCC2(CN(C(=O)N3CC4(CC(Cn5nccc5C(F)(F)F)C4)C3)C2)N1 [Example 168, 2-[6-[[5-(trifluoromethyl)pyrazol-1-yl]methyl]-2-azaspiro[3.3]heptane-2-carbonyl]-2,5-diazaspiro[3.4]octan-6-one]",2.45
2,"O=C1CCC2(CN(C(=O)N3CC4(CN(Cc5snnc5C5CC5)C4)C3)C2)N1 [Example 345, 2-[6-[(4-cyclopropylthiadiazol-5-yl)methyl]-2,6-diazaspiro[3.3]heptane-2-carbonyl]-2,5-diazaspiro[3.4]octan-6-one]",3330
3,"O=C1CCC2(CN(C(=O)N3CC4(CCN(Cc5cc(C(F)(F)F)sn5)CC4)C3)C2)N1 [Example 332, 2-[7-[[5-(trifluoromethyl)isothia-zol-3-yl]methyl]-2,7-diazaspiro[3.5]nonane-2-carbonyl]-2,5-diazaspiro[3.4]octan-6-one]",52.7
4,"O=C1COCC2(CN(C(=O)N3CC4(CC(Cc5cc(C(F)(F)F)ccn5)C4)C3)C2)N1 [Example 178, 2-[6-[[4-(trifluoromethyl)-2-pyridyl]methyl]-2-azaspiro[3.3]heptane-2-carbonyl]-8-oxa-2,5-diazaspiro[3.5]nonan-6-one]",15.4
5,"O=C1CCC2(CN(C(=O)N3CC4(CN(Cc5nc(C6CC6)ns5)C4)C3)C2)N1 [Example 340, 2-[6-[(3-cyclopropyl-1,2,4-thiadiazol-5-yl)methyl]-2,6-diazaspiro[3.4]heptane-2-carbonyl]-2,5-diazaspiro[3.4]octan-6-one]",428
6,"O=C1NC2(CO1)CN(C(=O)N1CC3(CC(Cc4ccc(F)cn4)C3)C1)C2 [Example 31, 2-[6-[(5-fluoro-2-pyridyl)methyl]-2-azaspiro[3.3]heptane-2-carbonyl]-7-oxa-2,5-diazaspiro[3.4]octan-6-one]",0.61
7,"O=C1NC2(CO1)CN(C(=O)N1CC3(CC(CNC4(C(F)(F)F)CC4)C3)C1)C2 [Example 49, 2-[6-[[[1-(trifluoromethyl)cyclopro-ropyl]amino]methyl]-2-azaspiro[3.3]heptane-2-carbonyl]-7-oxa-2,5-diazaspiro[3.4]octan-6-one]",0.77
8,"O=C1NCC2(CN(C(=O)N3CC4(CC(Cc5ccc(C(F)(F)F)cc5F)C4)C3)C2)N1 [Example 25, 2-[6-[2-fluoro-4-(trifluoromethyl)benzyl]-2-azaspiro[3.3]heptane-2-carbonyl]-2,5,7-triazaspiro[3.4]octan-6-one]",0.05
9,"O=C1COCC2(CN(C(=O)N3CC4(CC(Cn5ncc(C(F)(F)F)n5)C4)C3)C2)N1 [Example 362, 2-[6-[[4-(trifluoromethyl)triazol-2-yl]methyl]-2-azaspiro[3.3]heptane-2-carbonyl]-8-oxa-2,5-diazaspiro[3.5]nonan-6-one]",78.2
10,"O=C1NCC2(CN(C(=O)N3CC4(CC(Cc5ccc(F)cc5F)C4)C3)C2)N1 [Example 38, 2-[6-(2,4-difluorobenzyl)-2-azaspiro[3.3]heptane-2-carbonyl]-2,5,7-triazaspiro[3.4]octan-6-one]",2.34
11,"O=C1NC2(CO1)CN(C(=O)N1CC3(CC(OCC4(C(F)(F)F)CC4)C3)C1)C2 [Example 64, 2-[6-[[1-(trifluoromethyl)cyclopro-pyl]methoxy]-2-azaspiro[3.3]heptane-2-carbonyl]-7-oxa-2,5-diazaspiro[3.4]octan-6-one]",1.28
12,"O=C1COCC2(CN(C(=O)N3CC4(CC(Cc5cnn(C(F)(F)F)c5)C4)C3)C2)N1 [Example 365, 2-[6-[[1-(trifluoromethyl)pyrazol-4-yl]methyl]-2-azaspiro[3.3]heptane-2-carbonyl]-8-oxa-2,5-diazaspiro[3.5]nonan-6-one]",41
13,"N#Cc1cc(C(F)(F)F)ncc1O[C@H]1CCC2(C1)CN(C(=O)N1CC3(COC(=O)N3)C1)C2 [Example 209, 5-[[(6S)-2-(6-oxo-7-oxa-2,5-diazaspiro[3.4]octane-2-carbonyl)-2-azaspiro[3.4]octan-6-yl]oxy]-2-(trifluoromethyl)pyridine-4-carbonitrile]",6.28
14,"O=C1COCC2(CN(C(=O)N3CC4(CC(n5cnc(C6CC6)n5)C4)C3)C2)N1 [Example 227, 2-[6-(3-cyclopropyl-1,2,4-triazol-1-yl)-2-azaspiro[3.3]heptane-2-carbonyl]-8-oxa-2,5-diazaspiro[3.5]nonan-6-one]",1800

# Continued, values first:
row,IC50 [nM],Compound
1,0.45,"CS(=O)(=O)c1cc(F)cc(CC2CC3(C2)CN(C(=O)N2CC4(COC(=O)N4)C2)C3)c1 [Example 30, 2-[6-(3-fluoro-5-mesyl-benzyl)-2-azaspiro[3.3]heptane-2-carbonyl]-7-oxa-2,5-diazaspiro[3.4]octan-6-one]"
2,33.9,"O=C1NC2(CO1)CN(C(=O)N1CC3(CCN(Cc4ccc(C(F)(F)F)nn4)C3)C1)C2 [Example 158, 2-[7-[[6-(trifluoromethyl)pyrida-zin-3-yl]methyl]-2,7-diazaspiro[3.4]octane-2-carbonyl]-7-oxa-2,5-diazaspiro[3.4]octan-6-one]"
3,485,"O=C1COCC2(CN(C(=O)N3CC4(CC(Cc5cccc(S(=O)(=O)C(F)(F)F)c5)C4)C3)C2)N1 [Example 182, 2-[6-[[3-(trifluoromethylsulfonyl)phenyl]methyl]-2-azaspiro[3.3]heptane-2-carbonyl]-8-oxa-2,5-diazaspiro[3.5]nonan-6-one]"
4,80.2,"CS(=O)(=O)c1ccc(C[C@@H]2CCC3(C2)CN(C(=O)N2CC4(COCC(=O)N4)C2)C3)cc1 (single isomer, unassigned) [Example 73]"
5,87.3,"O=C1CCC2(CN(C(=O)N3CC4(CCN(Cc5ccc(S(=O)(=O)C(F)(F)F)cc5)C4)C3)C2)N1 [Example 218, 2-[7-[[4-(trifluoromethylsulfonyl)phenyl]methyl]-2,7-diazaspiro[3.4]octane-2-carbonyl]-2,5-diazaspiro[3.4]octan-6-one]"
6,2.49,"CS(=O)(=O)c1ccc(O[C@H]2CCC3(C2)CN(C(=O)N2CC4(COC(=O)N4)C2)C3)cc1C(F)(F)F [Example 118, 2-[(6S)-6-[4-mesy1-3-(trifluoromethyl)phenoxy]-2-azaspiro[3.4]octane-2-carbonyl]-7-oxa-2,5-diazaspiro[3.4]octan-6-one]"
7,30,"O=C1NC2(CO1)CN(C(=O)N1CC3(C1)CN(S(=O)(=O)c1ccc(OC(F)(F)F)cc1)C3)C2 [Example 191, 2-[2-[4-(trifluoromethoxy)phenyl]sulfonyl-2,6-diazaspiro[3.3]heptane-6-carbonyl]-7-oxa-2,5-diazaspiro[3.4]octan-6-one]"
8,38.8,"O=C1NC2(CO1)CN(C(=O)N1CC3(C1)CN(S(=O)(=O)c1cncc(C(F)(F)F)c1)C3)C2 [Example 196, 2-[2-[[5-(trifluoromethyl)-3-pyridyl]sulfonyl]-2,6-diazaspiro[3.3]heptane-6-carbonyl]-7-oxa-2,5-diazaspiro[3.4]octan-6-one]"
9,0.94,"O=C1NC2(CO1)CN(C(=O)N1CC3(CN(Cc4ccc(S(=O)(=O)C(F)(F)F)cc4)C3)C1)C2 [Example 85, 2-[6-(4-triflylbenzyl)-2,6-diazaspiro[3.3]heptane-2-carbonyl]-7-oxa-2,5-diazaspiro[3.4]octan-6-one]"
10,4.84,"O=C1COCC2(CN(C(=O)N3CC4(CC(Cc5cc(F)cc(S(=O)(=O)C(F)(F)F)c5)C4)C3)C2)N1 [Example 254, 2-[6-[[3-fluoro-5-(trifluoromethylsulfonyl)phenyl]methyl]-2-azaspiro[3.3]heptane-2-carbonyl]-8-oxa-2,5-diazaspiro[3.5]nonan-6-one]"
